According to patent US7999119B2, “Compounds having CRTH2 antagonist activity” (Oxagen Limited, priority 2006, dated 2011):

System: PGD2 induced eosinophil shape change
Test: Human whole blood eosinophil shape change assay
Type: cell-based
Details: Homo sapiens, Eosinophil, 10 nm PGD2-induced eosinophil shape change, human whole blood; read-out: Whole Blood IC50
Method: Human Whole Blood Eosinophil Shape Change Assay
Compounds 1 to 3 were assayed for their effect on PGD2 induced eosinophil shape change and were compared with Comparator Compounds A to G.
Shape Change Assay in Whole Blood
Compounds (1 μl, 200× final concentration) were added directly to 200 μl whole blood, mixed well and incubated for 15 min, 37° C., 5% CO2. After this time, cell shape was fixed by addition of 300 μl Cytofix™ buffer (BD Biosciences), 15 min on ice. 10 ml RBC lysis buffer was added to the fixed cells, incubated 5 min, at room temperature and centrifuged, 300×g for 5 min. Supernatant (containing lysed red cells) was removed and the lysis step was repeated. Leukocytes were resuspended in 250 μl RPMI/10% FCS and shape change analysed by FACS. Eosinophils were gated out based on their autofluorescence and 2000 eosinophil events were counted per sample. Data were analysed in triplicate.

IC50 [nM] | Structure (SMILES)
273 | Cc1c(Cc2ccc(S(=O)(=O)c3ccccc3)cc2)c2cc(F)ccc2n1CC(=O)O [Compound C, 2-{5-Fluoro-2-methyl-3-[4-(phenylsulfonyl)benzyl]-1H-indol-1-yl}acetic acid]
494 | Cc1c(Cc2ccc(S(=O)(=O)c3ccc(Cl)cc3)cc2)c2cc(F)ccc2n1CC(=O)O [Compound D, 2-{3-[4-(4-chlorophenylsulfonyl)benzyl]-5-fluoro-2-methyl-1H-indol-1-yl}acetic acid]
71 | Cc1c(Cc2ccc(S(=O)(=O)c3ccc(F)cc3)cc2)c2cc(F)ccc2n1CC(=O)O [Compound E, 2-{5-Fluoro-3-[4-(4-fluorophenylsulfonyl)benzyl]-2-methyl-1H-indol-1-yl}acetic acid]
1500 | Cc1c(Cc2cccc(S(=O)(=O)c3ccccc3)c2)c2cc(F)ccc2n1CC(=O)O [Compound F, 2-{5-Fluoro-2-methyl-3-[3-(phenylsulfonyl)benzyl]-1H-indol-1-yl}acetic acid]
4660 | Cc1c(Cc2cccc(S(=O)(=O)c3ccc(Cl)cc3)c2)c2cc(F)ccc2n1CC(=O)O [Compound G, 2-{3-[3-(4-chlorophenylsulfonyl)benzyl]-5-fluoro-2-methyl-1H-indol-1-yl}acetic acid]
